Experimental findings from ChEMBL document CHEMBL1201862, “PubChem BioAssay data set” (2004) are described below.

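Exposure lasted 48 hours, with cells grown in 96-well plates and compounds tested at five concentrations. GI50 marks 50% less growth.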 Activity calls are given as the source filed them. Rule as the data show it: active = GI50 up to about 1.1 µM and inactive = higher.

Some test systems named below: ACHN; BT-549; COLO 205; HL-60; HOP-92; LOX IMVI; M14; MOLT-4; NCI-H23; NCI/ADR-RES; OVCAR-4; OVCAR-8; RPMI-8226; RXF 393; SK-MEL-2; SR; SW-620; U-251; UACC-257; NCI-H522.
What all share (experiment): NCI tumour cell line growth inhibition, 48 h

Take `N/C(=N\c1ccccc1)c1ccccc1N`: the GI50 in the test on ACHN is > 100 µM (inactive); with BT-549, > 100 µM (inactive); with COLO 205, > 100 µM (inactive); with HL-60, 31.4 µM (inactive); in the test with HOP-92 it was 2.51 µM (inactive); in the test on LOX IMVI it was > 100 µM (inactive). The GI50 with M14, in the test on MOLT-4, in the test with NCI-H23, in the test with NCI/ADR-RES, with OVCAR-4 and with OVCAR-8 was > 100 µM (inactive) in each case. Also, the GI50 in the test with RPMI-8226, in the test on RXF 393, in the test on SK-MEL-2, in the test on SR, with SW-620 and in the test with U-251 was > 100 µM (inactive) in each case. Besides, the GI50 in the test on UACC-257 was > 100 µM (inactive).
As to `Cc1c(C(=O)OCc2ccccc2)[n+]([O-])c2ccccc2[n+]1[O-]`, the GI50 in the test with ACHN was 74.3 µM (inactive); with BT-549 it was 57.9 µM (inactive); in the test on COLO 205, 18.5 µM (inactive); with HL-60 it was 26.1 µM (inactive); in the test on HOP-92, 0.22 µM (active); in the test on LOX IMVI it was 20 µM (inactive). In addition, the GI50 with M14 is 32.1 µM (inactive); in the test on MOLT-4, 5.4 µM (inactive); in the test with NCI-H23, 33.7 µM (inactive); in the test on NCI/ADR-RES it was 26.2 µM (inactive); in the test with OVCAR-4 it was 20.8 µM (inactive); in the test on OVCAR-8 it was 48.6 µM (inactive). Also, the GI50 in the test on RPMI-8226 was 11.6 µM (inactive); in the test with RXF 393 it was 23.7 µM (inactive); in the test on SK-MEL-2, 32.8 µM (inactive); in the test on SR, 19.5 µM (inactive); with U-251, 40.8 µM (inactive); in the test with UACC-257 it was 17.8 µM (inactive).
On to `O=c1c2cc([N+](=O)[O-])cnc2sn1-c1ccc(Oc2ccccc2)cc1`, for which the GI50 is 53.1 µM (inactive) with ACHN; 52.8 µM (inactive) in the test on BT-549; > 100 µM (inactive) in the test on COLO 205; 39.9 µM (inactive) in the test on HL-60; 23 µM (inactive) with HOP-92; 44.9 µM (inactive) in the test on LOX IMVI. In addition, the GI50 in the test on M14 is 53.8 µM (inactive); in the test on MOLT-4 it was > 100 µM (inactive); in the test on NCI-H23, 36.4 µM (inactive); in the test on NCI-H522, 4.66 µM (inactive); in the test with NCI/ADR-RES it was 32.8 µM (inactive); in the test with OVCAR-4, 25.8 µM (inactive). Besides, the GI50 in the test on OVCAR-8 is 82.8 µM (inactive); in the test with RPMI-8226, 41.5 µM (inactive); in the test on SK-MEL-2, 26.7 µM (inactive); in the test on SR, 49.2 µM (inactive); in the test with SW-620 it was 57 µM (inactive); in the test on U-251, 29.9 µM (inactive). The GI50 in the test with UACC-257 was > 100 µM (inactive).
In the case of `COc1ccc(-c2nc(O)c3ccccc3n2)cc1OC`, the GI50 in the test with BT-549 is 64 µM (inactive); in the test on COLO 205 it was > 100 µM (inactive); in the test with M14, > 100 µM (inactive); in the test on MOLT-4, > 100 µM (inactive); in the test with NCI-H23, > 100 µM (inactive); in the test on NCI/ADR-RES it was 28.2 µM (inactive). Further, the GI50 in the test on OVCAR-4 is > 100 µM (inactive); in the test with OVCAR-8, 24.4 µM (inactive); in the test on RPMI-8226, 54.2 µM (inactive); with RXF 393, 26.4 µM (inactive); with SK-MEL-2 it was 98.4 µM (inactive); with SR, > 100 µM (inactive). Besides, the GI50 in the test on SW-620 was > 100 µM (inactive); with U-251, 23.1 µM (inactive); in the test on UACC-257 it was > 100 µM (inactive).
Turning to `CCN(CC)C(=S)SC(C(=O)Nc1nnc(-c2ccccc2)o1)c1ccccc1` (configuration not stated), the GI50 with ACHN was 17.4 µM (inactive); in the test on BT-549 it was 13.1 µM (inactive); in the test with COLO 205, 30.3 µM (inactive); in the test with LOX IMVI, 4.23 µM (inactive); with M14, 16.1 µM (inactive); with MOLT-4 it was 2.88 µM (inactive). Further, the GI50 was 15.4 µM (inactive) with NCI-H23; 17.8 µM (inactive) in the test on NCI-H522; 4.24 µM (inactive) with NCI/ADR-RES; 25.9 µM (inactive) with OVCAR-4; 28.8 µM (inactive) with OVCAR-8; 24.4 µM (inactive) in the test with RPMI-8226. The GI50 was 16.2 µM (inactive) in the test with RXF 393; 18.1 µM (inactive) in the test with SK-MEL-2; 5.52 µM (inactive) in the test with SR; 28.7 µM (inactive) in the test on SW-620; 16.1 µM (inactive) in the test with U-251; 22.9 µM (inactive) in the test on UACC-257.
For `O=C1CC(Cc2n[nH]c3c2CCCC3)CC(=O)N1`, the GI50 with BT-549, with COLO 205, with HL-60, in the test on HOP-92, in the test on LOX IMVI and in the test with M14 was > 100 µM (inactive) throughout. In addition, the GI50 in the test with MOLT-4, in the test on NCI-H23, in the test with NCI/ADR-RES, with OVCAR-4, in the test with OVCAR-8 and with RPMI-8226 was > 100 µM (inactive) throughout. Besides, the GI50 with RXF 393, with SK-MEL-2, in the test on SR, in the test on SW-620, in the test with U-251 and in the test with UACC-257 was > 100 µM (inactive) each time.
Take `COC(=O)[C@]1(Cc2ccc3ccccc3c2)CCCCCCN1C(=O)c1ccccc1`: the GI50 in the test with ACHN was > 34.4 µM (inactive); with BT-549, > 39.5 µM (inactive); in the test with COLO 205, 11.4 µM (inactive); in the test on HOP-92 it was > 38.5 µM (inactive); in the test on LOX IMVI, 16.7 µM (inactive); in the test with M14, > 36.1 µM (inactive). The GI50 in the test with MOLT-4 was > 21.3 µM (inactive); in the test with NCI-H23, > 29.3 µM (inactive); in the test with NCI/ADR-RES, > 34 µM (inactive); in the test with OVCAR-4, 12.7 µM (inactive); with OVCAR-8, > 33.3 µM (inactive); with RPMI-8226, 4.15 µM (inactive). The GI50 is > 32.2 µM (inactive) in the test with RXF 393; 12.6 µM (inactive) in the test on SK-MEL-2; > 100 µM (inactive) in the test with SR; > 40.8 µM (inactive) in the test with SW-620; > 26.7 µM (inactive) in the test with U-251; 12.5 µM (inactive) in the test on UACC-257.
Turning to `O=C(NC1CCC(=O)N1C(=O)OCc1ccccc1)OCc1ccccc1` (configuration not stated), the GI50 in the test with ACHN, in the test on BT-549, in the test with COLO 205, with HOP-92, in the test on M14 and with MOLT-4 was > 100 µM (inactive) in each case. The GI50 in the test on NCI-H23, in the test on NCI-H522, in the test on NCI/ADR-RES, with OVCAR-8, with RPMI-8226 and with RXF 393 was > 100 µM (inactive) throughout. For the same compound, the GI50 in the test with SK-MEL-2, in the test with SR, in the test with SW-620, in the test on U-251 and in the test on UACC-257 was > 100 µM (inactive) each time.
